This note sets out measurements from ChEMBL document CHEMBL3774333, “Identification of SNAIL1 Peptide-Based Irreversible Lysine-Specific Demethylase 1-Selective Inactivators” (J Med Chem, 2016).

One may read the IC50 as the concentration that inhibits the measured activity by half. Lower therefore signals greater potency in that assay.

Test [1] addresses T1, Lysine-specific histone demethylase 1A (Homo sapiens, UniProt O60341). The experiment in a line: biochemical.
Description: Inhibition of full length N-terminal His-tagged human recombinant LSD1 (1 to 852 residues) expressed in Escherichia coli BL21(DE3) cells using H3K4me2 peptide as substrate preincubated for 5 mins followed by substrate addition measured for 30 mins by peroxidase coupled assay
The target in test [2] is T1, Lysine-specific histone demethylase 1A. Description: Inhibition of LSD1 in human HeLa cells assessed as H3K4me2/H3 ratio at 20 uM after 24 hrs by Western blot analysis in absence of fetal bovine serum. It is filed as cell-based.
Test [3] deals with HeLa. The experiment in a line: Antiproliferative activity against human HeLa cells assessed as inhibition of cell viability at 12.5 to 100 uM treated for 24 hrs measured after 48 hrs by alamar blue assay in absence of fetal bovine serum. It is filed as functional, cell-based. (In general: Resazurin is reduced to fluorescent resorufin, in cell work by metabolically active cells.)

The source made the active and inactive calls. The rule behind the calls is not given here.

For the compound `C#CCN(C)CCC[C@H](NC(=O)[C@H](CO)NC(=O)[C@H](CCCNC(=N)N)NC(=O)[C@@H]1CCCN1)C(=O)N[C@@H](CC(C)C)C(=O)N[C@H](C(=O)N[C@@H](CCCNC(=N)N)C(=O)N[C@@H](CCCCN)C(=O)N1CCC[C@H]1C(=O)N[C@@H](CO)C(=O)N[C@@H](CC(=O)O)C(=O)N1CCC[C@H]1C(=O)N[C@@H](CC(N)=O)C(=O)N[C@@H](CCCNC(=N)N)C(=O)N[C@@H](CCCCN)C(=O)N1CCC[C@H]1C(=O)N[C@@H](CC(N)=O)C(=O)N[C@@H](Cc1ccc(O)cc1)C(=O)N[C@@H](CO)C(=O)N[C@@H](CCC(N)=O)C(N)=O)C(C)C`, the IC50 in test [1] came to 17 µM.
In the case of `C#CCN(CCC[C@H](NC(=O)[C@H](CO)NC(=O)[C@H](CCCNC(=N)N)NC(=O)[C@@H]1CCCN1)C(=O)N[C@@H](CC(C)C)C(=O)N[C@H](C(=O)N[C@@H](CCCNC(=N)N)C(=O)N[C@@H](CCCCN)C(=O)N1CCC[C@H]1C(=O)N[C@@H](CO)C(=O)N[C@@H](CC(=O)O)C(=O)N1CCC[C@H]1C(=O)N[C@@H](CC(N)=O)C(=O)N[C@@H](CCCNC(=N)N)C(=O)N[C@@H](CCCCN)C(=O)N1CCC[C@H]1C(=O)N[C@@H](CC(N)=O)C(=O)N[C@@H](Cc1ccc(O)cc1)C(=O)N[C@@H](CO)C(=O)N[C@@H](CCC(N)=O)C(N)=O)C(C)C)Cc1ccccc1`, inhibition in test [1] was half-maximal at 40 µM (IC50).
Still for that read-out and setting: in the case of `CC(C)C[C@H](NC(=O)[C@H](CCCCN[C@H]1C[C@@H]1c1ccccc1)NC(=O)[C@H](CO)NC(=O)[C@H](CCCNC(=N)N)NC(=O)[C@@H]1CCCN1)C(=O)N[C@H](C(=O)N[C@@H](CCCNC(=N)N)C(=O)N[C@@H](CCCCN)C(=O)N1CCC[C@H]1C(=O)N[C@@H](CO)C(=O)N[C@@H](CC(=O)O)C(=O)N1CCC[C@H]1C(=O)N[C@@H](CC(N)=O)C(=O)N[C@@H](CCCNC(=N)N)C(=O)N[C@@H](CCCCN)C(=O)N1CCC[C@H]1C(=O)N[C@@H](CC(N)=O)C(=O)N[C@@H](Cc1ccc(O)cc1)C(=O)N[C@@H](CO)C(=O)N[C@@H](CCC(N)=O)C(N)=O)C(C)C` it was 63 µM.
On to `CC(C)C[C@H](NC(=O)[C@H](CCCCN)NC(=O)[C@H](CO)NC(=O)[C@@H](CCCNC(=N)N)NC(=O)[C@H]1CCCN1)C(=O)N[C@H](C(=O)N[C@@H](CCCNC(=N)N)C(=O)N[C@@H](CCCCNC(=O)[C@@H](CCCNC(=N)N)NC(=O)[C@@H](CCCNC(=N)N)NC(=O)[C@@H](CCCNC(=N)N)NC(=O)[C@@H](CCCNC(=N)N)NC(=O)[C@@H](CCCNC(=N)N)NC(=O)[C@@H](CCCNC(=N)N)NC(=O)[C@@H](CCCNC(=N)N)NC(=O)[C@@H](N)CCCNC(=N)N)C(=O)N1CCC[C@H]1C(=O)N[C@@H](CO)C(=O)N[C@@H](CC(=O)O)C(=O)N1CCC[C@H]1C(=O)N[C@@H](CC(N)=O)C(=O)N[C@@H](CCCNC(=N)N)C(=O)N[C@@H](CCCCN)C(=O)N1CCC[C@H]1C(=O)N[C@H](CC(N)=O)C(=O)N[C@@H](Cc1ccc(O)cc1)C(=O)N[C@@H](CO)C(=O)N[C@@H](CCC(N)=O)C(N)=O)C(C)C`, for which, in test [2], the Ratio is 1.06. The inhibition result in test [3] was “inactive”.
